Assay results from US7923578B2, “Method of manufacturing 3-(4-hydroxyphenyl)propanoic acid amide, its application in the manufacture of anti-aging compositions and anti-aging composition” (Instytut Chemii Bioorganicznej Pan, priority 2005, dated 2011).
Values joined by “and” are separate entries in the source; they are usually repeats but may differ in a detail not shown here. Equal entries are not always repeated.

Legend:
SNF25 p 44 cells = experiment: JC-1 staining of mitochondrial potential by fluorescence microscopy; assay type: cell-based, human; details: pre-treatment for 3 days, all doses
Description: FIG. 3 presents the localization of JC-1 in SNF25 p44 cells using phloretamide by fluorescence microscopy.
Localization of JC-1 in SNF25 p 44 cells using phloretamide by fluorescence microscopy is shown on FIG. 3.
Staining for JC-1 was performed after phloretamide pre-treatment on dermal fibroblasts for a period of 3 days to see the mitochondrial potential.

[1] = tested on: middle aged dermal fibroblasts; experiment: Mitochondrial activity / cell survival (MTT assay); assay type: cell-based, human
Description: Test solution preparation: Stock solutions of 8 mM for the 3-p-hydroxyphenyl-propanoic acid amide were prepared by dissolving about 30 mg/ml in Hank's buffer to a final volume of 30 ml. In brief, the stock solutions were filter sterilized, stored at 4° C., and were used for experiments at their appropriate dilutions in cell culture media as required. Cell culture: All experiments were performed on mid- and late passage cultures of normal human adult skin fibroblast line, designated Senetek SNF25 (40-75% life span completed). In order to check the effects of test compounds on senescent cells, late passage cells with about 75% lifespan completed were used. […] The effects of the test chemicals were determined in the following conditions: Growth characteristics: Short-term growth experiments were performed using 24-well tissue culture plates (growth area 1.9 cm^2) and flat bottom 96 well plates (growth area 0.328 cm^2). […] The numbers of cells were counted after different days of treatment in 2 wells from each concentration of the test chemical, by following the normal method of cell trypsinization and counting using a Coulter Counter. […] Cell survival, toxicity and JC-1 staining: Cell survival after exposure to various doses was measured with the 3-(4,5 dimethylthiazol-2-yl)-2,5-diphenyltetrazolium bromide (MTT) assay. […] The absorbance was measured at 595 nm. […]

[2] = tested on: human dermal fibroblasts (SNF25); experiment: Cell attachment of human skin fibroblasts; assay type: cell-based
Description: (§1) Test solution preparation: Stock solutions of 8 mM for the 3-p-hydroxyphenyl-propanoic acid amide were prepared by dissolving about 30 mg/ml in Hank's buffer to a final volume of 30 ml. In brief, the stock solutions were filter sterilized, stored at 4° C., and were used for experiments at their appropriate dilutions in cell culture media as required. Cell culture: All experiments were performed on mid- and late passage cultures of normal human adult skin fibroblast line, designated Senetek SNF25 (40-75% life span completed). In order to check the effects of test compounds on senescent cells, late passage cells with about 75% lifespan completed were used. SNF25 cell line was established from a mammary skin biopsy obtained from a young, non-smoking and healthy […] at the time of breast reduction operation. Normal culture conditions of medium (DMEM) containing antibiotics, 10% fetal calf serum, and incubation at 37° C., 5% CO2 with 95% humidity were used. The effects of the test chemicals were determined in the following conditions: Growth characteristics: Short-term growth experiments were performed using 24-well tissue culture plates (growth area 1.9 cm^2) and flat bottom 96 well plates (growth area 0.328 cm^2). Freshly prepared cell suspensions from mass cultures of SNF25 cells maintained in the lab were used. About 10,000 cells/well were seeded into 6 sets of 24-well plates. […] The numbers of cells were counted after different days of treatment in 2 wells from each concentration of the test chemical, by following the normal method of cell trypsinization and counting using a Coulter Counter. […] Cell survival, toxicity and JC-1 staining: Cell survival after exposure to various doses was measured with the 3-(4,5 dimethylthiazol-2-yl)-2,5-diphenyltetrazolium bromide (MTT) assay. […] The absorbance was measured at 595 nm. […] The cultures were visually examined after 72 hours, and the number of viable cells and/or the total cell protein content determined, after 72 hours exposure, by the Neutral Red Uptake method. […]

late passage cells = experiment: Cell survival of late passage (senescent) cells, Coulter counting; assay type: cell-based, human
Description: Effects on late passage cells—Cytoskeletal organization: Late passage cells with more than 75% lifespan were treated with different doses of phloretamide in order to see if this treatment could revert any of the age related changes. […] Effect of 3-p-hydroxyphenyl-propionic acid amide on the morphology of late passage cells after 7 and 14 days—Morphology of senescent cells: Late passage human skin fibroblasts (about 75% life span completed) were treated with various doses of phloretamide to see whether this treatment could reverse age-related alterations in their morphology. […] Heterogeneous behavior was not observed in the cells. […] Cell survival: Equal numbers of senescent cells were seeded in separate flasks and were treated with different concentrations of phloretamide. Cell numbers were determined by using a Coulter counter after trypsinization and resuspension of cells after 7 and 14 days of treatment.

[3] = tested on: Late passage human skin fibroblasts; experiment: Cytoskeletal organization and morphology of late passage cells; assay type: cell-based
Description: as §1

[4] = tested on: Fibroblast cells (SF25 p29); experiment: Lysosomal activity (Neutral Red Uptake assay); assay type: cell-based, human
Description: Test solution preparation: Stock solutions of 8 mM for the 3-p-hydroxyphenyl-propanoic acid amide were prepared by dissolving about 30 mg/ml in Hank's buffer to a final volume of 30 ml. In brief, the stock solutions were filter sterilized, stored at 4° C., and were used for experiments at their appropriate dilutions in cell culture media as required. Cell culture: All experiments were performed on mid- and late passage cultures of normal human adult skin fibroblast line, designated Senetek SNF25 (40-75% life span completed). In order to check the effects of test compounds on senescent cells, late passage cells with about 75% lifespan completed were used. SNF25 cell line was established from a mammary skin biopsy obtained from a young, non-smoking and healthy […] at the time of breast reduction operation. Normal culture conditions of medium (DMEM) containing antibiotics, 10% fetal calf serum, and incubation at 37° C., 5% CO2 with 95% humidity were used. The effects of the test chemicals were determined in the following conditions: Growth characteristics: Short-term growth experiments were performed using 24-well tissue culture plates (growth area 1.9 cm^2) and flat bottom 96 well plates (growth area 0.328 cm^2). Freshly prepared cell suspensions from mass cultures of SNF25 cells maintained in the lab were used. About 10,000 cells/well were seeded into 6 sets of 24-well plates. The cells were either allowed to attach and stabilize for 24 hours in normal culture medium or were directly added to the culture medium of a final concentration (range 40 μM to 500 μM). Culture medium was changed with the addition of test chemicals weekly. The numbers of cells were counted after different days of treatment in 2 wells from each concentration of the test chemical, by following the normal method of cell trypsinization and counting using a Coulter Counter. The third well in each category was fixed with cold methanol and stained with Giemsa stain for permanent record and for photography. The experiment was carried on until the cultures became fully confluent and no further growth was possible. Cell survival, toxicity and JC-1 staining: Cell survival after exposure to various doses was measured with the 3-(4,5 dimethylthiazol-2-yl)-2,5-diphenyltetrazolium bromide (MTT) assay. About 5,000 cells were seeded per well in a 96-well plate for 24 hours before the experiment. Cells were then treated with various doses of the compound to be tested. The wells were washed in Hank's and new medium was added. […] The absorbance was measured at 595 nm. […] The cultures were visually examined after 72 hours, and the number of viable cells and/or the total cell protein content determined, after 72 hours exposure, by the Neutral Red Uptake method. […]

fibroblasts = experiment: Induction of cell proliferation (DNA synthesis, BrdU incorporation); assay type: cell-based, human; details: pre-treated fibroblasts
[5] = tested on: human skin fibroblasts (SNF25 p 23); experiment: Short-term growth (one step growth curve, Coulter counting, Giemsa morphology); assay type: cell-based
Description: Test solution preparation: Stock solutions of 8 mM for the 3-p-hydroxyphenyl-propanoic acid amide were prepared by dissolving about 30 mg/ml in Hank's buffer to a final volume of 30 ml. In brief, the stock solutions were filter sterilized, stored at 4° C., and were used for experiments at their appropriate dilutions in cell culture media as required. Cell culture: All experiments were performed on mid- and late passage cultures of normal human adult skin fibroblast line, designated Senetek SNF25 (40-75% life span completed). In order to check the effects of test compounds on senescent cells, late passage cells with about 75% lifespan completed were used. SNF25 cell line was established from a mammary skin biopsy obtained from a young, non-smoking and healthy […] at the time of breast reduction operation. Normal culture conditions of medium (DMEM) containing antibiotics, 10% fetal calf serum, and incubation at 37° C., 5% CO2 with 95% humidity were used. The effects of the test chemicals were determined in the following conditions: Growth characteristics: Short-term growth experiments were performed using 24-well tissue culture plates (growth area 1.9 cm^2) and flat bottom 96 well plates (growth area 0.328 cm^2). Freshly prepared cell suspensions from mass cultures of SNF25 cells maintained in the lab were used. About 10,000 cells/well were seeded into 6 sets of 24-well plates. The cells were either allowed to attach and stabilize for 24 hours in normal culture medium or were directly added to the culture medium of a final concentration (range 40 μM to 500 μM). Culture medium was changed with the addition of test chemicals weekly. The numbers of cells were counted after different days of treatment in 2 wells from each concentration of the test chemical, by following the normal method of cell trypsinization and counting using a Coulter Counter. The third well in each category was fixed with cold methanol and stained with Giemsa stain for permanent record and for photography. The experiment was carried on until the cultures became fully confluent and no further growth was possible. Cell survival, toxicity and JC-1 staining: Cell survival after exposure to various doses was measured with the 3-(4,5 dimethylthiazol-2-yl)-2,5-diphenyltetrazolium bromide (MTT) assay. About 5,000 cells were seeded per well in a 96-well plate for 24 hours before the experiment. Cells were then treated with various doses of the compound to be tested. The wells were washed in Hank's and new medium was added. After three days, MTT (Sigma, M2128) was added at 0.5 mg/ml in medium. After 4 h, MTT was removed and isopropanol and HCl were added to dissolve the MTT crystals for 12-16 h. The absorbance was measured at 595 nm. Lysosomal activity: Neutral Red is preferentially taken up into the lysosomes of the cell. Fibroblast cells were maintained in culture and exposed to test compounds over a range of concentrations. The cultures were visually examined after 72 hours, and the number of viable cells and/or the total cell protein content determined, after 72 hours exposure, by the Neutral Red Uptake method. Individual wells of a 96-well tissue culture microtiter plate were inoculated with 0.2 ml of the appropriate media containing cells (usually 3×10^3 cells). After 1 day of incubation, the media were removed and replaced with unamended (control) medium or with medium amended with varied concentrations of the compound to be tested. […]

Question: Which “JC-1 staining (mitochondrial potential)” value (SNF25 p 44 cells) does the source give for `NC(=O)CCc1ccc(O)cc1` [phloretamide, 3-(4-hydroxyphenyl)propanoic acid amide] here?
Answer: Its value is “polarized mitochondria”.

Question: And the “JC-1 staining (mitochondrial potential)” value (SNF25 p 44 cells; listed as 3-p-hydroxyphenyl-propionic acid amide)?
Answer: Its value is “Punctate orange-red fluorescent staining was observed”.

Question: And the “effects on the activity of mitochondria” value ([1]; until a dose of 500 μM, 3 days, MTT)?
Answer: Its value is “no negative effects”.

Question: And the “induction of cell growth” value ([1]; within the tested range of doses (0, 01 μM-500 μM))?
Answer: Its value is “no induction of cell growth”.

Question: And the “percentage of cells attached to the surface of the culture flask” value ([2]; after six hours of treatment, 40 11 M to 2 mM)?
Answer: The value was “not affected to any significant extent”.

Question: What about the “improved / enhanced cell attachment” value ([2]; at 40 μM and 80 μM) of the same compound?
Answer: The value was 20-30% and 10-20%.

Question: What about the “immediate toxicity to human dermal fibroblasts” value ([2]; six hours of treatment) of the same compound?
Answer: Its value is “not immediately toxic”.

Question: What about the “numbers of surviving late passage cells” value (late passage cells; after one and two weeks) of the same compound?
Answer: Its value is “almost similar without much difference”.

Question: What about the “cell growth of late passage cells” value (late passage cells; at higher doses, after 7 and 14 of treatment) of the same compound?
Answer: Its value is “dose dependent reduction”.

Question: What about the “improvement in the late passage cells” value ([3]; after 14 days of treatment) of the same compound?
Answer: The value was “couldn't find an improvement”.

Question: What about the “appearance (morphology) of late passage cells” value ([3]; after seven and fourteen days of treatment, about 75% life span completed) of the same compound?
Answer: Its value is “subtle differences”.

Question: And the “actin staining pattern, treated versus untreated cells” value ([3]; middle-aged cells after 3 days)?
Answer: The value was “no obvious differences”.

Question: And the “staining pattern of the cells (lysosomal staining)” value ([4]; 40 μM and 80 μM, FIG. 4)?
Answer: The value was “showed autophagy”.

Question: And the “decrease in the lysosomal autophagy” value ([4]; dose range of 40 μM and 80 μM)?
Answer: Its value is 15-40%.

Question: What about the “lysosomal rate compared to the untreated” value ([4]; up to 200 μM, 72 hours exposure) of the same compound?
Answer: The value was “decreased in a dose dependent manner”.

Question: And the lysosomal activity ([4]; upwards of 40 μM)?
Answer: The lysosomal activity was “decrease in lysosomal activity was observed”.

Question: What about the “DNA synthesis in comparison to the controls” value (fibroblasts) of the same compound?
Answer: Its value is “no significant differences”.

Question: What about the inhibition at 500 µM ([5]; Homo sapiens, Skin fibroblast, 264 h, higher concentrations (500 μM), 11 days, read-out: inhibition of cellular growth) of the same compound?
Answer: Its inhibition at 500 µM is > 50%.

Question: And the “increase in cell numbers” value ([5]; after 11 days of treatment, 40 μM to 200 μM)?
Answer: Its value is 10-20%.

Question: And the “doses at which cytotoxicity of cells was seen” value ([5]; after 11 days of treatment, morphology)?
Answer: Its value is “greater than 200 μM”.

Question: And the “stimulation of cell growth” value ([5]; at 40 μM and 80 μM, one step growth curve, up to 11 days)?
Answer: Its value is “stimulation of cell growth”.

Question: What about the “appearance (morphology) of cells” value ([5]; at higher doses, after 11 days of treatment (FIG. 2 E)) of the same compound?
Answer: Its value is “larger, irregularly arranged and sparse”.
